Five molecules from PubChem BioAssay AID250 (DTP/NCI, 2004) can be followed below.

Values joined by “and” are separate entries in the source; they are usually repeats but may differ in a detail not shown here. Identical values can stand only once. Inconclusive results and toxic doses are left out.

The subject of this assay is BDF1 mice, L1210 leukemia sc, survival T/C. Kind of assay: NCI In Vivo Anticancer Drug Screen. Data for tumor model L1210 Leukemia (subcutaneous) in B6D2F1 (BDF1) mice. The conditions noted are these: endpoint: median survival time, higher = longer survival. The procedure, abridged:
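Tumors were transplanted into mice, the animals were treated with compound, survival or tumor size was then measured, and treated values were divided by vehicle-control values.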

The mark [1] stands for this setting: dose: 47.0 mg/kg/injection, schedule: Q01DX Z (sc), vehicle: methylcellulose (MC).

For the molecule `Nc1n[nH]c(N)n1`, the T/C by setting is: (dose: 125.0 mg/kg/injection, schedule: Q03HX024 (sc), vehicle: none) 110 % of control; (dose: 180.0 mg/kg/injection, schedule: Q03HX024 (ip), vehicle: water) 116 % of control; (dose: 180.0 mg/kg/injection, schedule: Q03HX024 (sc), vehicle: water) 122 % of control; (dose: 250.0 mg/kg/injection, schedule: Q03HX024 (sc), vehicle: none) 120 % of control; (dose: 250.0 mg/kg/injection, schedule: Q#A X018 (sc), vehicle: none) 120 % of control; (dose: 432.0 mg/kg/injection, schedule: Q01DX Z (sc), vehicle: water) 104 % of control. Moreover, the T/C (dose: 500.0 mg/kg/injection, schedule: Q03HX024 (ip), vehicle: water) is 177 % of control; the T/C (dose: 500.0 mg/kg/injection, schedule: Q03HX024 (sc), vehicle: water) is 166 % of control; the T/C (dose: 500.0 mg/kg/injection, schedule: Q04DX003 (sc), vehicle: none) was 110 % of control; the T/C (dose: 500.0 mg/kg/injection, schedule: Q#A X018 (sc), vehicle: none) was 160 % of control; the T/C (dose: 720.0 mg/kg/injection, schedule: Q01DX Z (sc), vehicle: water) is 109 % of control; the T/C (dose: 1000.0 mg/kg/injection, schedule: Q03HX024 (sc), vehicle: none) was 110 % of control. Moreover, the T/C is 110 % of control (dose: 1000.0 mg/kg/injection, schedule: Q04DX003 (sc), vehicle: none); 150 % of control (dose: 1000.0 mg/kg/injection, schedule: Q08DX009 (sc), vehicle: none); 100 % of control (dose: 1000.0 mg/kg/injection, schedule: Q#A X018 (sc), vehicle: none); 150 % of control (dose: 2000.0 mg/kg/injection, schedule: Q01DX Z (sc), vehicle: water); 115 % of control (dose: 2000.0 mg/kg/injection, schedule: Q04DX003 (sc), vehicle: none); 90 % of control (dose: 2000.0 mg/kg/injection, schedule: Q#A X018 (sc), vehicle: none). For the same molecule, the T/C (dose: 4000.0 mg/kg/injection, schedule: Q04DX003 (sc), vehicle: none) is 120 % of control and the T/C (dose: 4000.0 mg/kg/injection, schedule: Q08DX009 (sc), vehicle: none) was 150 % of control.
Take `Cn1cnc([N+](=O)[O-])c1Sc1nc(N)nc2nc[nH]c12`: the T/C reads like this: (dose: 1.3 mg/kg/injection, schedule: Q01DX Z (sc), vehicle: methylcellulose (MC)) 110 % of control; (dose: 2.16 mg/kg/injection, schedule: Q01DX Z (sc), vehicle: methylcellulose (MC)) 90 % of control and 110 % of control; (dose: 3.0 mg/kg/injection, schedule: Q01DX Z (sc), vehicle: methylcellulose (MC)) 109 % of control; (dose: 3.6 mg/kg/injection, schedule: Q01DX Z (oral), vehicle: methylcellulose (MC)) 100 % of control; (dose: 3.6 mg/kg/injection, schedule: Q01DX Z (sc), vehicle: methylcellulose (MC)) 100 % of control; (dose: 5.0 mg/kg/injection, schedule: Q01DX Z (sc), vehicle: methylcellulose (MC)) 118 % of control. The T/C runs as follows: (dose: 6.0 mg/kg/injection, schedule: Q01DX Z (oral), vehicle: methylcellulose (MC)) 109 % of control; (dose: 8.4 mg/kg/injection, schedule: Q01DX Z (oral), vehicle: methylcellulose (MC)) 109 % of control; (dose: 10.0 mg/kg/injection, schedule: Q01DX Z (oral), vehicle: methylcellulose (MC)) 100 % of control; (dose: 14.0 mg/kg/injection, schedule: Q01DX Z (oral), vehicle: methylcellulose (MC)) 122 % of control; (dose: 17.0 mg/kg/injection, schedule: Q01DX Z (oral), vehicle: methylcellulose (MC)) 113 % of control; (dose: 28.0 mg/kg/injection, schedule: Q01DX Z (oral), vehicle: methylcellulose (MC)) 113 % of control. Further, the T/C runs as follows: (dose: 47.0 mg/kg/injection, schedule: Q01DX Z (oral), vehicle: methylcellulose (MC)) 109 % of control; under setting [1], 150 % of control; (dose: 65.0 mg/kg/injection, schedule: Q01DX Z (oral), vehicle: methylcellulose (MC)) 154 % of control; (dose: 78.0 mg/kg/injection, schedule: Q01DX Z (oral), vehicle: methylcellulose (MC)) 118 % of control; (dose: 108.0 mg/kg/injection, schedule: Q01DX Z (oral), vehicle: methylcellulose (MC)) 154 % of control; (dose: 130.0 mg/kg/injection, schedule: Q01DX Z (oral), vehicle: methylcellulose (MC)) 113 % of control. The T/C (dose: 216.0 mg/kg/injection, schedule: Q01DX Z (oral), vehicle: methylcellulose (MC)) is 118 % of control.
Regarding `CS(=O)(=O)OCCCCOS(C)(=O)=O`, the T/C (dose: 6.25 mg/kg/injection, schedule: Q01DX009 (ip), vehicle: Klucel (hydroxypropylcellulose) (HPC)) is 93 % of control; the T/C (dose: 6.25 mg/kg/injection, schedule: Q01DX009 (sc), vehicle: Klucel (hydroxypropylcellulose) (HPC)) is 97 % of control; the T/C (dose: 12.5 mg/kg/injection, schedule: Q01DX009 (ip), vehicle: Klucel (hydroxypropylcellulose) (HPC)) was 103 % of control; the T/C (dose: 12.5 mg/kg/injection, schedule: Q01DX009 (sc), vehicle: Klucel (hydroxypropylcellulose) (HPC)) is 96 % of control; the T/C (dose: 23.0 mg/kg/injection, schedule: Q01DX Z (sc), vehicle: methylcellulose (MC)) was 103 % of control; the T/C (dose: 25.0 mg/kg/injection, schedule: Q01DX009 (ip), vehicle: Klucel (hydroxypropylcellulose) (HPC)) was 106 % of control. Besides, the T/C (dose: 25.0 mg/kg/injection, schedule: Q01DX009 (sc), vehicle: Klucel (hydroxypropylcellulose) (HPC)) was 105 % of control; the T/C under setting [1] was 105 % of control; the T/C (dose: 50.0 mg/kg/injection, schedule: Q01DX009 (ip), vehicle: Klucel (hydroxypropylcellulose) (HPC)) is 101 % of control; the T/C (dose: 50.0 mg/kg/injection, schedule: Q01DX009 (sc), vehicle: Klucel (hydroxypropylcellulose) (HPC)) was 96 % of control; the T/C (dose: 65.0 mg/kg/injection, schedule: Q01DX Z (sc), vehicle: methylcellulose (MC)) is 96 % of control; the T/C (dose: 78.0 mg/kg/injection, schedule: Q01DX Z (sc), vehicle: methylcellulose (MC)) was 110 % of control. The T/C is 96 % of control (dose: 108.0 mg/kg/injection, schedule: Q01DX Z (sc), vehicle: methylcellulose (MC)); 100 % of control (dose: 130.0 mg/kg/injection, schedule: Q01DX Z (sc), vehicle: methylcellulose (MC)); 103 % of control (dose: 180.0 mg/kg/injection, schedule: Q01DX Z (sc), vehicle: methylcellulose (MC)); 100 % of control (dose: 300.0 mg/kg/injection, schedule: Q01DX Z (sc), vehicle: methylcellulose (MC)).
As for `Nc1ccc(OC(=O)Oc2ccc(N)cc2)cc1`, the T/C runs as follows: (dose: 180.0 mg/kg/injection, schedule: Q01DX Z (sc), vehicle: carboxymethylcellulose (CMC)) 111 % of control; (dose: 833.0 mg/kg/injection, schedule: Q01DX Z (sc), vehicle: carboxymethylcellulose (CMC)) 100 % of control.
On to `COC12C(COC(N)=O)C3=C(C(=O)C(C)=C(N)C3=O)N1CC1C2N1C` (centres undefined), for which the T/C by setting is: (dose: 1.8 mg/kg/injection, schedule: Q01DX Z (sc), vehicle: saline) 100 % of control; (dose: 2.0 mg/kg/injection, schedule: Q01DX009 (ip), vehicle: saline) 101 % of control; (dose: 2.0 mg/kg/injection, schedule: Q01DX009 (sc), vehicle: saline) 103 % of control and 106 % of control; (dose: 3.0 mg/kg/injection, schedule: Q01DX Z (sc), vehicle: saline) 100 % of control; (dose: 4.0 mg/kg/injection, schedule: Q01DX009 (ip), vehicle: saline) 106 % of control; (dose: 4.0 mg/kg/injection, schedule: Q01DX009 (sc), vehicle: saline) 104 % of control and 105 % of control. For the same molecule, the T/C runs as follows: (dose: 5.0 mg/kg/injection, schedule: Q01DX Z (sc), vehicle: saline) 100 % of control; (dose: 8.0 mg/kg/injection, schedule: Q01DX009 (ip), vehicle: saline) 116 % of control; (dose: 8.0 mg/kg/injection, schedule: Q01DX009 (sc), vehicle: saline) 107 % of control and 112 % of control; (dose: 8.4 mg/kg/injection, schedule: Q01DX Z (sc), vehicle: saline) 100 % of control; (dose: 16.0 mg/kg/injection, schedule: Q01DX009 (sc), vehicle: saline) 116 % of control; (dose: 32.0 mg/kg/injection, schedule: Q01DX009 (sc), vehicle: saline) 92 % of control and 117 % of control.
